One block for each compound: values may come before it.
Tests used:
[1] = test system: melanoma A375 tumor cell line; test: MTT reduction assay, A375 melanoma cells; type: cell-based, human; conditions: for effect on A375 cell viability: 72 h of exposure; for IC50: MTT, 72 h
Protocol: (§1) The cytotoxic activity was measured against the melanoma A375 tumor cell line (ECACC) and the human BJ fibroblast cell line (ATCC) using an MTT reduction assay. The selectivity index (SI) was calculated using the following formula: SI = IC50 (BJ)/ IC50 (A375).
The A375 cell line was purchased from the European Collection of Authenticated Cell Cultures (ECACC, Salisbury, UK) and the BJ human fibroblast cell line from the American Type Culture Collection (ATCC, Manassas, VA, USA). All the cell lines were grown as a monolayer in standard conditions: 37 °C, 100% humidity, under an atmosphere of 5% CO2. […] The BJ cell line was grown in EMEM with EBSS, NEAA and sodium pyruvate with L-Glutamine supplemented, 10% fetal bovine serum and 50 IU/mL penicillin/streptomycin.
(§2) Next, the cells were seeded in 96-well plates at a density of 5000 cells per well and incubated overnight to reach the logarithmic growth phase. […] After 72 h, 10 µL of MTT solution (5 g/L) was added into each well and incubated for an additional four hours. Subsequently, the medium was removed, and 100 µL of dimethyl sulfoxide (DMSO) was added into each well. The absorbance was then measured at 570 nm using a SPECTROstar Nano microplate reader (BMG Biotech Inc., Cary, NC, USA)/Tecan Spark 10M. The mean value from three independent BJ and A375 cell cultures was taken to calculate the cell viability, expressed as a percentage of the control values, i.e., untreated cells assumed as 100%.

[2] = test system: human BJ fibroblast cell line; test: MTT reduction assay, BJ fibroblasts; type: cell-based; conditions: 72 h
Protocol: as §1
The A375 cell line was purchased from the European Collection of Authenticated Cell Cultures (ECACC, Salisbury, UK) and the BJ human fibroblast cell line from the American Type Culture Collection (ATCC, Manassas, VA, USA). All the cell lines were grown as a monolayer in standard conditions: 37 °C, 100% humidity, under an atmosphere of 5% CO2. The A375 cells were cultured in Dulbecco’s Modified Eagle Medium supplemented with 15% fetal calf serum and 50 IU/mL penicillin/streptomycin. The BJ cell line was grown in EMEM with EBSS, NEAA and sodium pyruvate with L-Glutamine supplemented, 10% fetal bovine serum and 50 IU/mL penicillin/streptomycin.
as §2

[3] = test system: clot formation and fibrinolysis in human citrate plasma; test: Clot formation and fibrinolysis test (CL-test); conditions: for CLAUC overall potential for clot formation and fibrinolysis / Fmax maximum clotting / Fvo initial plasma clotting velocity / Lmax maximum lysis / Lvo initial clot fibrinolysis velocity / Sc area under the curve of stable clot formation / Sf area under the fibrinolysis curve / Sr area under the clot formation curve / Tc clot stabilization time / Tf plasma clotting time / Tl fibrinolysis time / Tt thrombin time: mean, n = 3
Protocol: Following this, the impact of the tested complex compounds and their ligands on the overall clot formation and fibrinolysis potential (CLAUC) and individual kinetic parameters was assessed using the CL-test. The analysis was performed using plasma from three different donors.
The blood samples used were residual materials from routine diagnostic studies, destined for disposal as medical waste. […] Platelet-poor plasma (PPP) and red blood cells were obtained using centrifugation at 3000× g for 10 min at room temperature using a Mikro 22R centrifuge (Hettich Zentrifugen, Tuttlingen, Germany). The plasma was used for the hemostasis tests. Before use, the centrifuged erythrocyte mass was washed three times with physiological saline solution to remove the plasma protein residues and other blood cells.
The influence of the compounds on the overall hemostasis potential was determined using the CL-test through continuous measurement of changes in optical transmittance, as described previously [53, 54]. The experiments were conducted using three-fold diluted human citrate plasma, t-PA and thrombin. […] The results are presented as means ± SD (n = 3). The curves were used to determine the kinetic parameters of clot formation, stabilization and fibrinolysis using dedicated software [51]. The following parameters of clot formation were determined: Tt—thrombin time (s), Fmax—maximum clotting (%T), Tf—plasma clotting time (s), Fvo—initial plasma clotting velocity (%T/min), Sr—area under the clot formation curve (%Txmin). The parameters of the clot stabilization phase comprised Tc—clot stabilization time (s) and Sc—area under the curve of stable clot formation (%Txmin). The parameters of fibrinolysis comprised Lmax—maximum lysis (%T), Tl—fibrinolysis time (s), Lvo—initial clot fibrinolysis velocity (%T/min) and Sf—area under the fibrinolysis curve (%Txmin). Additionally, the overall potential for clot formation and fibrinolysis, i.e., CLAUC (%Txmin), was also estimated.

[4] = test system: extrinsic coagulation pathway; test: Prothrombin time (PT) and INR in human citrated plasma; conditions: up to 100 µmol/L; reference PT 9.7–14.6 s, INR 0.8–1.2
Protocol: The first stage assessed the changes in plasma hemostasis occurring under the influence of the five test compounds. Plasma was incubated with the tested compounds and ligands at six different concentrations ranging from 0.5 to 100 µmol/L. The plasma was obtained from five different volunteers. To evaluate the impact on the extrinsic coagulation pathway, the prothrombin time (PT) was determined in human citrated plasma, expressed in seconds and as the international normalized ratio (INR) (Figure 6 and Figure 7).
The plasma was used for the hemostasis tests.
The results are presented as means ± standard deviation (SD).

Structure (SMILES): N.N.[Cl][Pt][Cl] [Cisplatin, cisplatin]
effect on A375 cell viability [1]: dose-dependent cytotoxic effect
IC50 [1]: 8.5 ± 0.3 µM
IC50 [2]: 24 ± 0.8 µM

IC50 ([1]; Homo sapiens, A-375): > 100 µM
effect on CLAUC and kinetic parameters of clot formation and lysis ([3]; entire concentration range 0.5–100 µmol/L): no significant differences
Structure (SMILES): Cc1ncc([N+](=O)[O-])n1CCO [MTZ, metronidazole]
IC50 ([2]; Homo sapiens, Fibroblast): > 100 µM

IC50 [1]: 18.5 ± 2.4 µM
Structure (SMILES): Clc1ccc(COC(Cn2ccnc2)c2ccc(Cl)cc2Cl)c(Cl)c1.Clc1ccc(COC(Cn2ccnc2)c2ccc(Cl)cc2Cl)c(Cl)c1.[Ag+].[F][Sb-]([F])([F])([F])([F])[F] (stereo not drawn) [[Ag(MCZ)2SbF6]]
IC50 [2]: 16 ± 0.9 µM

Structure (SMILES): Cc1ncc([N+](=O)[O-])n1CCO.Cc1ncc([N+](=O)[O-])n1CCO.O=[N+]([O-])[O-].[Ag+] [[(MTZ)2AgNO3]]
IC50 [1]: 3 ± 0.3 µM
IC50 [2]: 46 ± 1.6 µM
prolongation of PT and INR beyond the reference range [4]: do not cause pathological prolongation
CLAUC overall potential for clot formation and fibrinolysis ([3]; 0.5 µmol/L): 287.9 %*min
Fmax maximum clotting ([3]; 0.5 µmol/L): 64.4%
Fvo initial plasma clotting velocity ([3]; 0.5 µmol/L): 126.7 %/min
Lmax maximum lysis ([3]; 0.5 µmol/L): 61.9%
Lvo initial clot fibrinolysis velocity ([3]; 0.5 µmol/L): 20.9 %/min
Sc area under the curve of stable clot formation ([3]; 0.5 µmol/L): 118.4 %*min
Sf area under the fibrinolysis curve ([3]; 0.5 µmol/L): 125.5 %*min
Sr area under the clot formation curve ([3]; 0.5 µmol/L): 44.1 %*min
Tc clot stabilization time ([3]; 0.5 µmol/L): 114.3 s
Tf plasma clotting time ([3]; 0.5 µmol/L): 61.9 s
Tl fibrinolysis time ([3]; 0.5 µmol/L): 158.7 s
Tt thrombin time ([3]; 0.5 µmol/L): 21.3 s
CLAUC overall potential for clot formation and fibrinolysis ([3]; 1.0 µmol/L): 275.7 %*min
Fmax maximum clotting ([3]; 1.0 µmol/L): 62.2%
Fvo initial plasma clotting velocity ([3]; 1.0 µmol/L): 126.3 %/min
Lmax maximum lysis ([3]; 1.0 µmol/L): 61.5%
Lvo initial clot fibrinolysis velocity ([3]; 1.0 µmol/L): 19.5 %/min
Sc area under the curve of stable clot formation ([3]; 1.0 µmol/L): 125.5 %*min
Sf area under the fibrinolysis curve ([3]; 1.0 µmol/L): 105.1 %*min
Sr area under the clot formation curve ([3]; 1.0 µmol/L): 45.1 %*min
Tc clot stabilization time ([3]; 1.0 µmol/L): 124.7 s
Tf plasma clotting time ([3]; 1.0 µmol/L): 65.9 s
Tl fibrinolysis time ([3]; 1.0 µmol/L): 175.0 s
Tt thrombin time ([3]; 1.0 µmol/L): 21.6 s
CLAUC overall potential for clot formation and fibrinolysis ([3]; 5.0 µmol/L): 343.6 %*min
Fmax maximum clotting ([3]; 5.0 µmol/L): 70.7%
Fvo initial plasma clotting velocity ([3]; 5.0 µmol/L): 157.7 %/min
Lmax maximum lysis ([3]; 5.0 µmol/L): 70.5%
Lvo initial clot fibrinolysis velocity ([3]; 5.0 µmol/L): 21.9 %/min
Sc area under the curve of stable clot formation ([3]; 5.0 µmol/L): 169.8 %*min
Sf area under the fibrinolysis curve ([3]; 5.0 µmol/L): 129.1 %*min
Sr area under the clot formation curve ([3]; 5.0 µmol/L): 44.7 %*min
Tc clot stabilization time ([3]; 5.0 µmol/L): 146.7 s
Tf plasma clotting time ([3]; 5.0 µmol/L): 59.4 s
Tl fibrinolysis time ([3]; 5.0 µmol/L): 199.0 s
Tt thrombin time ([3]; 5.0 µmol/L): 19.2 s
CLAUC overall potential for clot formation and fibrinolysis ([3]; 10.0 µmol/L): 284.4 %*min
Fmax maximum clotting ([3]; 10.0 µmol/L): 61.4%
Fvo initial plasma clotting velocity ([3]; 10.0 µmol/L): 121.6 %/min
Lmax maximum lysis ([3]; 10.0 µmol/L): 60.2%
Lvo initial clot fibrinolysis velocity ([3]; 10.0 µmol/L): 19.5 %/min
Sc area under the curve of stable clot formation ([3]; 10.0 µmol/L): 126.7 %*min
Sf area under the fibrinolysis curve ([3]; 10.0 µmol/L): 117.2 %*min
Sr area under the clot formation curve ([3]; 10.0 µmol/L): 40.5 %*min
Tc clot stabilization time ([3]; 10.0 µmol/L): 126.7 s
Tf plasma clotting time ([3]; 10.0 µmol/L): 62.3 s
Tl fibrinolysis time ([3]; 10.0 µmol/L): 180.3 s
Tt thrombin time ([3]; 10.0 µmol/L): 23.3 s
CLAUC overall potential for clot formation and fibrinolysis ([3]; 50.0 µmol/L): 280.7 %*min
Fmax maximum clotting ([3]; 50.0 µmol/L): 63.8%
Fvo initial plasma clotting velocity ([3]; 50.0 µmol/L): 129.0 %/min
Lmax maximum lysis ([3]; 50.0 µmol/L): 61.8%
Lvo initial clot fibrinolysis velocity ([3]; 50.0 µmol/L): 22.0 %/min
Sc area under the curve of stable clot formation ([3]; 50.0 µmol/L): 123.25 %*min
Sf area under the fibrinolysis curve ([3]; 50.0 µmol/L): 118.6 %*min
Sr area under the clot formation curve ([3]; 50.0 µmol/L): 38.9 %*min
Tc clot stabilization time ([3]; 50.0 µmol/L): 119.3 s
Tf plasma clotting time ([3]; 50.0 µmol/L): 56.9 s
Tl fibrinolysis time ([3]; 50.0 µmol/L): 164.7 s
Tt thrombin time ([3]; 50.0 µmol/L): 22.5 s
CLAUC overall potential for clot formation and fibrinolysis ([3]; 100.0 µmol/L): 318.6 %*min
Fmax maximum clotting ([3]; 100.0 µmol/L): 68.6%
Fvo initial plasma clotting velocity ([3]; 100.0 µmol/L): 124.9 %/min
Lmax maximum lysis ([3]; 100.0 µmol/L): 67.2%
Lvo initial clot fibrinolysis velocity ([3]; 100.0 µmol/L): 29.6 %/min
Sc area under the curve of stable clot formation ([3]; 100.0 µmol/L): 146.3 %*min
Sf area under the fibrinolysis curve ([3]; 100.0 µmol/L): 131.8 %*min
Sr area under the clot formation curve ([3]; 100.0 µmol/L): 40.4 %*min
Tc clot stabilization time ([3]; 100.0 µmol/L): 131.3 s
Tf plasma clotting time ([3]; 100.0 µmol/L): 59.2 s
Tl fibrinolysis time ([3]; 100.0 µmol/L): 188.7 s
Tt thrombin time ([3]; 100.0 µmol/L): 22.4 s

Structure (SMILES): Clc1ccc(COC(Cn2ccnc2)c2ccc(Cl)cc2Cl)c(Cl)c1 (stereo not drawn) [MCZ, miconazole]
effect on A375 cell viability [1]: dose-dependent reduction

Reference: PMC11121064 (International Journal of Molecular Sciences, 2024)
